Data from patent US8785452B2, “Anti-infective compounds” (priority 2008, dated 2014).
Like-named read-outs stand apart in the source and are kept apart here.

Experiments:
[1] = system: M. tuberculosis H37Rv-GFP; test: microbe, parasite or virus in culture; format: cell-based, Mycobacterium tuberculosis; settings: Mycobacterium tuberculosis, H37RV, Macrophage
Raw264.7 cells [2] = test: Cell number (CellNb) from image analysis of the phenotypic cell-based assay; settings: for QIM Confirm CellNb 2 uM: confirmation
Raw264.7 cells [3] = settings: mouse
[4] = confirmation, 20 uM, read-out: QIM Confirm % Inhibition 20 uM
[5] = primary screen, 20 μM, read-out: Primary QIM % Inhibition

Structure (SMILES) | inhibition at 20 µM [1, 4] [%] | inhibition at 20 µM [1, 5] [%] | Primary QIM CellNb (Raw264.7 cells [2]; primary screen, 20 μM) | Primary QIM CellNb (Raw264.7 cells [3]; 5 days, 20 μM) | QIM Confirm CellNb 2 uM (Raw264.7 cells [2]) | QIM Confirm CellNb 2 uM (Raw264.7 cells [3]; 5 days) | inhibition at 20 µM ([1]; read-out: Primary QIM % Inhibition) [%] | inhibition at 20 µM ([1]; read-out: QIM Confirm % Inhibition 20 uM) [%] | Primary QIM CellNb (Raw264.7 cells [2]) | Primary QIM CellNb (Raw264.7 cells [3])
c1cc2c(cc1C13CC4CC(CC(C4)C1)C3)c1c3n2CCNC3CCC1 (centres unmarked) [IPK 000 068 87] | 71.4 | 73.1 | 156.8 | −12.0 | – | – | – | – | – | –
Cn1cc(/C=N/NC(=O)c2cccc(F)c2)c2ccccc21 [IPK 000 104 11] | 83.3 | 89.7 | 203.8 | 19.9 | – | – | – | – | – | –
O=C(NC12CC3CC(CC(C3)C1)C2)c1ccc([N+](=O)[O-])cc1 [IPK 000 113 77] | 74.3 | 60.9 | 319.8 | 48.4 | – | – | – | – | – | –
CC(C)c1ccc(/C=N/NC(=O)c2ccncc2)cc1 [IPK 000 043 32] | 102 | 60.5 | 164.0 | 94.5 | – | – | – | – | – | –
CN(C)c1ccc(/C=N/NC(=O)c2ccncc2)cc1 [IPK 000 042 96] | 105 | 84.3 | 216.3 | 101.1 | – | – | – | – | – | –
O=C(Nc1sc2c(c1C(=O)Nc1ccccc1)CCC2)c1ccccc1Cl [IPK 000 073 68] | 92.6 | 88.2 | 202.3 | 74.7 | – | – | – | – | – | –
O=[N+]([O-])c1cc(Br)cc(/C=N/c2ccccc2O)c1O [IPK 000 080 69] | 16.5 | -42.5 | 123.5 | 37.6 | – | – | – | – | – | –
O=S(=O)(Nc1nccs1)c1ccc(/N=C/c2ccccc2O)cc1 [IPK 000 079 88] | 28.1 | -69.2 | 181.8 | 7.5 | – | – | – | – | – | –
CCOc1cc(/C=N/NC(=O)c2ccncc2)ccc1O [IPK 000 042 99] | 106 | 103 | 364.0 | 104.1 | – | – | – | – | – | –
N#Cc1cc(Br)c([N+](=O)[O-])cc1C#N [IPK 000 042 72] | 57.6 | 11.9 | 152.0 | −1.9 | 96.1 | 82.5 | – | – | – | –
COc1cc(/C=N/NC(=O)c2ccncc2)cc(Br)c1OC [IPK 000 078 53] | 107 | 84 | 386.0 | 95.6 | – | – | – | – | – | –
COc1cccc(/C=N/NC(=O)c2ccncc2)c1O [IPK 000 043 08] | 95.1 | 87.3 | 255.5 | 102.7 | – | – | – | – | – | –
O=C(Nc1ccc(Cl)cc1[N+](=O)[O-])c1ccc([N+](=O)[O-])cc1Cl [IPK 000 049 00] | – | – | – | – | – | – | 32.1 | 74.2 | 108.0 | 72.2
O=[N+]([O-])c1cc(/C=N/c2ccc(S(=O)(=O)NC3NC=CS3)cc2)c2c(c1)COCO2 (centres unmarked) [IPK 000 057 92] | 27.2 | -30.7 | 165.3 | 23.0 | – | – | – | – | – | –
O=C(Nc1cccnc1)c1ccc(COc2ccc3ccccc3c2)o1 [IPK 000 124 43] | 64.7 | 35.6 | 168.3 | 26.2 | – | – | – | – | – | –
COc1c(O)cc(/C=N/NC(=O)c2ccncc2)cc1Br [IPK 000 078 30] | 105 | 108 | 388.3 | 97.0 | – | – | – | – | – | –
CC1=C(Nc2ccc(S(=O)(=O)Nc3nc(C)cc(C)n3)cc2)Sc2ccccc2N1 [IPK 000 112 67] | 32.6 | -36.5 | 250.8 | 27.6 | – | – | – | – | – | –
CCCCc1ccc(C(=O)Nc2ccc(Br)cn2)cc1 [IPK 000 105 47] | 50.7 | 60.1 | 125.8 | 68.1 | – | – | – | – | – | –
Cc1cccn2c(=O)c(C=O)c(Nc3cccc(Cl)c3)nc12 [IPK 000 042 07] | 107 | 34.7 | 198.0 | 104.0 | – | – | – | – | – | –
CCCCc1ccc(NC(=O)c2ccc([N+](=O)[O-])cc2Cl)cc1 [IPK 000 047 17] | 88.5 | 57.6 | 152.3 | 69.7 | – | – | – | – | – | –
CCOC(=O)C1=C(C)NC2=C(C(=O)CC(c3ccccc3)C2)C1c1cccc(O)c1 (centres unmarked) [IPK 000 083 89] | 59.1 | 73.5 | 38.8 | 19.5 | – | – | – | – | – | –
CC(=O)Oc1ccccc1C(=S)Nc1ccccc1 [IPK 000 042 77] | 48.9 | 105 | 367.0 | 7.7 | – | – | – | – | – | –
CCOc1ccc2ccccc2c1/C=N/NC(=O)c1ccncc1 [IPK 000 043 62] | 104 | 98.2 | 393.8 | 98.8 | – | – | – | – | – | –

Structure (SMILES) | inhibition at 20 µM [1, 4] [%] | inhibition at 20 µM [1, 5] [%] | Primary QIM CellNb (Raw264.7 cells [2]; primary screen, 20 μM) | Primary QIM CellNb (Raw264.7 cells [3]; 5 days, 20 μM) | QIM Confirm CellNb 2 uM (Raw264.7 cells [2]) | QIM Confirm CellNb 2 uM (Raw264.7 cells [3]; 5 days) | inhibition at 20 µM ([1]; read-out: Primary QIM % Inhibition) [%] | inhibition at 20 µM ([1]; read-out: QIM Confirm % Inhibition 20 uM) [%] | Primary QIM CellNb (Raw264.7 cells [2]) | Primary QIM CellNb (Raw264.7 cells [3])
COc1ccc(/C(C)=N/NC(N)=S)c(OC)c1 [IPK 000 080 24] | 23 | 0.2 | 188.8 | 67.6 | – | – | – | – | – | –
COc1ccc(/C=N/NC(=O)c2ccncc2)cc1OC [IPK 000 042 95] | 98.8 | 64.7 | 143.5 | 106.0 | – | – | – | – | – | –
O=C(CS)Nc1ccccc1Cl [IPK 000 108 27] | 44.1 | 54.7 | 171.0 | 19.0 | – | – | – | – | – | –
CCOc1nnc(NS(=O)(=O)c2ccc(/N=C/c3ccccc3O)cc2)s1 [IPK 000 080 01] | 56.6 | 14.3 | 409.8 | 27.4 | – | – | – | – | – | –
O=C(Nc1sc2c(c1C(=O)Nc1ccccc1)CCC2)c1cccs1 [IPK 000 042 30] | 95.9 | 73.7 | 193.8 | 75.2 | – | – | – | – | – | –
CC/C(Cc1ccccc1)=N\NC(=O)c1ccncc1 [IPK 000 078 86] | 108 | 96.9 | 462.0 | 88.3 | – | – | – | – | – | –
O=C(N/N=C/c1cccs1)c1ccncc1 [IPK 000 043 33] | 104 | 83 | 270.8 | 94.5 | – | – | – | – | – | –
O=C(N/N=C/c1ccc[nH]1)c1ccccn1 [IPK 000 058 21] | 56 | 90.9 | 452.5 | 75.7 | – | – | – | – | – | –
NNC(=O)c1ccc(COc2ccc3c(c2)CCC3)o1 [IPK 000 123 30] | 64.1 | 77.2 | 296.8 | 72.5 | – | – | – | – | – | –
O=C(Nc1sc2c(c1C(=O)Nc1ccccc1)CCC2)c1ccccc1Br [IPK 000 073 29] | 86.6 | 78.6 | 230.5 | 55.1 | – | – | – | – | – | –
COc1ccc(/C=N/NC(=O)c2ccncc2)c(OC)c1 [IPK 000 043 00] | 102 | 104 | 333.3 | 101.4 | – | – | – | – | – | –
O=C(O)COc1ccccc1/C=N/NC(=O)c1ccncc1 [IPK 000 105 19] | 106 | 98.7 | 374.3 | 104.1 | 566.4 | – | – | – | – | –
O=C(N/N=C/C=C/c1ccc([N+](=O)[O-])cc1)c1ccncc1 [IPK 000 043 30] | 102 | 107 | 305.0 | 100.8 | – | – | – | – | – | –
O=C(Nc1cccc(C(F)(F)F)c1)Nc1ccc(Cl)c(Cl)c1 [IPK 000 052 50] | 76.4 | 45 | 44.0 | 10.8 | – | – | – | – | – | –
COc1cc(Cl)cc(/C=N/NC(=O)c2ccccc2O)c1O [IPK 000 104 20] | 34.6 | 65.2 | 29.5 | −2.9 | – | – | – | – | – | –
O=C(N/N=C/c1cccc(Cl)c1Cl)c1ccncc1 [IPK 000 043 10] | 98.3 | 14.3 | 176.8 | 92.7 | – | – | – | – | – | –
Nc1nonc1NC(=O)CSc1cccc2ccccc12 [IPK 000 106 30] | 67.2 | 65.7 | 146.5 | 28.5 | – | – | – | – | – | –
Cc1ccc(NC(=O)c2c(NC(=O)c3ccccc3Cl)sc3c2CCC3)cc1 [IPK 000 073 69] | 32.3 | 87 | 246.5 | 14.0 | – | – | – | – | – | –
CCCCN(CCCC)C(=O)c1ccc(C(C)(C)C)cc1 [IPK 000 067 60] | 46.6 | 63.4 | 164.3 | 25.8 | 179.1 | 99.7 | – | – | – | –
Cc1cc(/C=C(/C#N)C(=O)Nc2cccc(Br)c2)c(C)n1-c1ccc(C(=O)O)cc1 [IPK 000 113 05] | 56.4 | 55.4 | 162.0 | 31.6 | – | – | – | – | – | –
O=C(N/N=C/c1cccc(Br)c1)c1ccncc1 [IPK 000 043 09] | 102 | 95.8 | 258.5 | 100.5 | – | – | – | – | – | –
O=C(N/N=C/c1ccc(Cl)cc1)c1ccncc1 [IPK 000 041 53] | 97 | 100 | 426.8 | 98.1 | – | – | – | – | – | –
